Experimental data as given in US20100035925A1, “COMPOUNDS, PHARMACEUTICAL CO[…] DMETHODS FOR […] INFECTIVITY” ([…], INC, priority 2004, published 2010).

Tests used:
[1] = test system: HIV drug resistant strains (pL10R and p1617-1); format: cell-based

O=C(O)C[S+]([O-])c1ccc2c3c(cccc13)C(=O)c1ccccc1-2 (centres unmarked) [Compound 111]
cytotoxicity (transfected 293 cells): without significant cytotoxicity

COc1ccc2c(Cc3c4ccccc4cc4ccccc34)cncc2c1O [Compound 1334]
inhibitory activity on HIV infectivity (in words) [1]: lesser inhibitory activity
